Measured values published in patent US20260199320A1, “COMBINATION THERAPIES FOR TREATING CANCER” (INSTITUTE FOR CANCER RESEARCH D/B/A THE RESEARCH INSTITUTE …, priority 2022, published 2026).
Where two headings read alike, the source gives them in different places.

System: HEP 3B Hepatocellular Carcinoma
Test: Cell viability by CellTiter Blue assay, CalcuSyn 2.0 combination analysis, HEP 3B
Details: for IC50: read-out: Dm; for Dose Lon: Lon alone; for Dose Len: Len alone; for Dose Sor: Sor alone
Description: Cell viability was analyzed by CellTiter Blue assay. ED, effective dose. The data analysis was performed using CalcuSyn 2.0 software. […] CI 0.85-0.9: slight synergism; CI 0.7-0.85: moderate synergism; CI 0.3-0.7: synergism; CI 0.1-0.3: strong synergism; CI<0.1: very strong synergism.

Which results are given for `NC(=O)N1CCC(CC(=O)N2CCC([C@H]3c4ncc(Br)cc4CCc4cc(Cl)cc(Br)c43)CC2)CC1` [Lon, Lonafarnib]?
Effect (Dose 100.0 nM): 0.2171; Effect (Dose 200.0 nM): 0.2792; Effect (Dose 400.0 nM): 0.3124; Effect (Dose 600.0 nM): 0.3247; Effect (Dose 800.0 nM): 0.3747; Effect (Dose 1.0E−4 nM): 1.0E−4; IC50 (Homo sapiens, Hep3B): 1.56 µM; Dose Lon (Fa 0.05): 7.632 nM; Dose Lon (Fa 0.1): 29.4334 nM; Dose Lon (Fa 0.15): 67.8864 nM; Dose Lon (Fa 0.2): 127.362 nM; Dose Lon (Fa 0.25): 214.159 nM; Dose Lon (Fa 0.3): 337.210 nM; Dose Lon (Fa 0.34468 (experimental point of LonSor)): 488.163 nM; Dose Lon (Fa 0.35): 509.303 nM; Dose Lon (Fa 0.37774 (experimental point of LonSor)): 632.458 nM; Dose Lon (Fa 0.4): 749.086 nM; Dose Lon (Fa 0.45): 1084.42 nM; Dose Lon (Fa 0.48908 (experimental point of LonLen)): 1439.98 nM; Dose Lon (Fa 0.5): 1558.23 nM; Dose Lon (Fa 0.55): 2239.05 nM; Dose Lon (Fa 0.6): 3241.39 nM; Dose Lon (Fa 0.60837 (experimental point of LonSor)): 3452.95 nM; Dose Lon (Fa 0.65): 4767.46 nM; Dose Lon (Fa 0.66115 (experimental point of LonLen)): 5212.31 nM; Dose Lon (Fa 0.7): 7200.51 nM; Dose Lon (Fa 0.75): 11337.8 nM; Dose Lon (Fa 0.76439 (experimental point of LonLen)): 13060.1 nM; Dose Lon (Fa 0.79346 (experimental point of LonLen)): 17723.1 nM; Dose Lon (Fa 0.8): 19064.4 nM; Dose Lon (Fa 0.83864 (experimental point of LonLen)): 30595.1 nM; Dose Lon (Fa 0.84428 (experimental point of LonSor)): 33023.4 nM; Dose Lon (Fa 0.85): 35766.8 nM; Dose Lon (Fa 0.9): 82494.1 nM; Dose Lon (Fa 0.93635 (experimental point of LonSor)): 200408. nM; Dose Lon (Fa 0.95): 318153. nM; Dose Lon (Fa 0.97): 831265. nM; Dose Lon (Fa 1.0E−4 (experimental point)): 9.27e-05 nM

Which Effect (Dose 1.0 uM) does the source give for `COc1cc2nccc(Oc3ccc(NC(=O)NC4CC4)c(Cl)c3)c2cc1C(N)=O` [Len, Lenvatinib] here?
The Effect was 0.3487.

And the Effect (Dose 2.0 uM)?
The Effect was 0.5908.

And the Effect (Dose 4.0 uM)?
Its Effect is 0.6835.

And the Effect (Dose 6.0 uM)?
Its Effect is 0.706.

And the Effect (Dose 8.0 uM)?
Its Effect is 0.7316.

And the Effect (Dose 1.0E−4 uM)?
The Effect was 1.0E−4.

And the IC50 (Homo sapiens, Hep3B)?
Its IC50 is 1.98 µM.

What about the “Dose Len” value (Fa 0.05) of the same molecule?
Its value is 0.08241 µM.

What about the “Dose Len” value (Fa 0.1) of the same molecule?
The value was 0.1847 µM.

And the “Dose Len” value (Fa 0.15)?
The value was 0.3044 µM.

What about the “Dose Len” value (Fa 0.2) of the same molecule?
The value was 0.4435 µM.

What about the “Dose Len” value (Fa 0.25) of the same molecule?
Its value is 0.605 µM.

What about the “Dose Len” value (Fa 0.3) of the same molecule?
Its value is 0.7937 µM.

And the “Dose Len” value (Fa 0.35)?
The value was 1.016 µM.

And the “Dose Len” value (Fa 0.4)?
Its value is 1.279 µM.

And the “Dose Len” value (Fa 0.45)?
The value was 1.596 µM.

And the “Dose Len” value (Fa 0.48908 (experimental point))?
Its value is 1.891 µM.

What about the “Dose Len” value (Fa 0.5) of the same molecule?
The value was 1.982 µM.

What about the “Dose Len” value (Fa 0.55) of the same molecule?
Its value is 2.462 µM.

And the “Dose Len” value (Fa 0.6)?
The value was 3.071 µM.

And the “Dose Len” value (Fa 0.65)?
Its value is 3.868 µM.

And the “Dose Len” value (Fa 0.66115 (experimental point))?
Its value is 4.08 µM.

And the “Dose Len” value (Fa 0.7)?
Its value is 4.949 µM.

What about the “Dose Len” value (Fa 0.75) of the same molecule?
Its value is 6.493 µM.

What about the “Dose Len” value (Fa 0.76439 (experimental point)) of the same molecule?
The value was 7.066 µM.

And the “Dose Len” value (Fa 0.79346 (experimental point))?
Its value is 8.481 µM.

What about the “Dose Len” value (Fa 0.8) of the same molecule?
Its value is 8.859 µM.

What about the “Dose Len” value (Fa 0.83864 (experimental point)) of the same molecule?
Its value is 11.7543 µM.

And the “Dose Len” value (Fa 0.85)?
Its value is 12.9048 µM.

What about the “Dose Len” value (Fa 0.9) of the same molecule?
Its value is 21.2693 µM.

And the “Dose Len” value (Fa 0.95)?
Its value is 47.6701 µM.

What about the “Dose Len” value (Fa 0.97) of the same molecule?
The value was 84.6505 µM.

And the “Dose Len” value (Fa 1.0E−4 (experimental point))?
Its value is 9.48e-05 µM.

For `CNC(=O)c1cc(Oc2ccc(NC(=O)Nc3ccc(Cl)c(C(F)(F)F)c3)cc2)ccn1` [Sor, Sorafenib], which Effect (Dose 1.0 uM) is on record?
The Effect was 0.05824.

And the Effect (Dose 2.0 uM)?
The Effect was 0.1667.

What about the Effect (Dose 4.0 uM) of the same molecule?
The Effect was 0.4078.

What about the Effect (Dose 6.0 uM) of the same molecule?
Its Effect is 0.6762.

And the Effect (Dose 8.0 uM)?
The Effect was 0.8681.

What about the Effect (Dose 1.0E−4 uM) of the same molecule?
Its Effect is 1.0E−4.

What about the “Dose Sor” value (Fa 0.05) of the same molecule?
Its value is 0.1769 µM.

And the “Dose Sor” value (Fa 0.1)?
Its value is 0.4116 µM.

What about the “Dose Sor” value (Fa 0.15) of the same molecule?
Its value is 0.6944 µM.

What about the “Dose Sor” value (Fa 0.2) of the same molecule?
Its value is 1.029 µM.

And the “Dose Sor” value (Fa 0.25)?
The value was 1.425 µM.

What about the “Dose Sor” value (Fa 0.3) of the same molecule?
Its value is 1.893 µM.

What about the “Dose Sor” value (Fa 0.34468 (experimental point)) of the same molecule?
Its value is 2.386 µM.

And the “Dose Sor” value (Fa 0.35)?
Its value is 2.451 µM.

And the “Dose Sor” value (Fa 0.37774 (experimental point))?
The value was 2.806 µM.

And the “Dose Sor” value (Fa 0.4)?
The value was 3.12 µM.

And the “Dose Sor” value (Fa 0.45)?
Its value is 3.933 µM.

And the “Dose Sor” value (Fa 0.5)?
Its value is 4.934 µM.

And the “Dose Sor” value (Fa 0.55)?
Its value is 6.19 µM.

What about the “Dose Sor” value (Fa 0.6) of the same molecule?
Its value is 7.803 µM.

And the “Dose Sor” value (Fa 0.60837 (experimental point))?
Its value is 8.118 µM.

What about the “Dose Sor” value (Fa 0.65) of the same molecule?
The value was 9.934 µM.

And the “Dose Sor” value (Fa 0.7)?
The value was 12.8580 µM.

And the “Dose Sor” value (Fa 0.75)?
Its value is 17.0827 µM.

And the “Dose Sor” value (Fa 0.8)?
The value was 23.6479 µM.

What about the “Dose Sor” value (Fa 0.84428 (experimental point)) of the same molecule?
The value was 33.3507 µM.

What about the “Dose Sor” value (Fa 0.85) of the same molecule?
Its value is 35.0585 µM.

And the “Dose Sor” value (Fa 0.9)?
The value was 59.1449 µM.

What about the “Dose Sor” value (Fa 0.93635 (experimental point)) of the same molecule?
Its value is 103.075 µM.

And the “Dose Sor” value (Fa 0.95)?
The value was 137.645 µM.

And the “Dose Sor” value (Fa 0.97)?
Its value is 251.060 µM.

And the “Dose Sor” value (Fa 1.0E−4 (experimental point))?
The value was 0.000148 µM.

And the IC50 (CalcuSyn median-effect fit, single drug dosed in uM)?
Its IC50 is 4.93 µM.
